We go through three molecules from patent publication US20240099989A1, “AGENT FOR PREVENTING OR IMPROVING PERIPHERAL NEUROPATHY” (KINKI UNIVERSITY, priority 2021, published 2024).

Where two headings read alike, the source gives them in different places.

This assay concerns Peripheral Neuropathy in a Mouse Caused by Bortezomib. The class given is in vivo, Balb/c mice. The text has this:
Six to seven-week-old female Balb/c mice were used for the tests. All the mice were acclimated for seven days after arrival. Then, the mice were grouped into the following four groups: a control group, a group receiving bortezomib, a group receiving xylitol, and a group receiving bortezomib and xylitol (a group receiving bortezomib+xylitol). Each group consisted of five mice.
On Day 8 of acclimation, the mice in the group receiving bortezomib and the group receiving bortezomib+xylitol were intraperitoneally administered with bortezomib at a dose of 1 mg/kg. This day was designated as Day 0 of administration. Thereafter, these mice were intraperitoneally administered with bortezomib at a daily dose of 1 mg/kg on Day 7 and Day 14.
The mice in the group receiving xylitol and the group receiving bortezomib+xylitol were orally administered with xylitol at a dose of 5 mg/kg daily from Day 0.
A cold plate test was performed to examine the effect of xylitol on paresthesia that is caused by a low temperature stimulus. The mice in the four groups described in (10) of the present example (Example 1) were placed on a cold plate set at 10° C., and withdrawal response time (latent time) was measured. It is presumed that a shorter latent time reflects a greater degree of shunning the low temperature stimulus by the cold plate.
Six to seven-week-old female Balb/c mice were used for the tests as with Example 1. All the mice were acclimated for seven days after arrival. Then, the mice were grouped into the following four groups: a control group, a group receiving bortezomib, a group receiving xylitol, and a group receiving bortezomib and xylitol (a group receiving bortezomib+xylitol). Each group consisted of five mice.
On Day 8 of acclimation, the mice in the group receiving bortezomib and the group receiving bortezomib+xylitol were intraperitoneally administered with bortezomib at a dose of 1 mg/kg. This day was designated as the first day of the administration (Day 0). Thereafter, these mice were intraperitoneally administered with bortezomib at the same dose on Day 7 and Day 14 for a total of 3 doses.
The mice in the group receiving 100 mg/kg xylitol were orally administered with xylitol at a dose of 100 mg/kg daily from Day 0. The mice in the group receiving bortezomib+100 mg/kg xylitol were orally administered with xylitol at a dose of 100 mg/kg daily from Day 6 of administration.
A test was performed on the mice in the four groups described in (12) of the present example (Example 2) to examine the effect of xylitol on paresthesia that is caused by a low temperature stimulus. The mice in respective groups were placed on a cold plate set at 10° C., and withdrawal response time (latent time) was measured. It is presumed that a shorter latent time reflects a greater degree of shunning the low temperature stimulus by the cold plate.
Six to seven-week-old female Balb/c mice were used for the tests as with Example 1. All the mice were acclimated for seven days after arrival. Then, the mice were grouped into the following four groups: a control group, a group receiving bortezomib, a group receiving D-threitol, and a group receiving bortezomib and D-threitol (a group receiving bortezomib+D-threitol). Each group consisted of five mice.
On Day 8 of acclimation, the mice in the group receiving bortezomib and the group receiving bortezomib+D-threitol were intraperitoneally administered with bortezomib at a dose of 1 mg/kg. This day was designated as Day 0 of administration. Thereafter, these mice were intraperitoneally administered with bortezomib at a daily dose of 1 mg/kg on Day 7 and Day 14.
The mice in the group receiving D-threitol and the group receiving bortezomib+D-threitol were orally administered with D-threitol at a dose of 5 mg/kg daily from Day 0.
A cold plate test was performed to examine the effect of D-threitol on paresthesia that is caused by a low temperature stimulus. […]

Where [1] appears, read: 1 mg/kg bortezomib + 5 mg/kg test substance orally daily from Day 0 (prevention).
The mark [2] stands for this setting: 1 mg/kg bortezomib + 100 mg/kg orally daily from Day 6, on Day 12, vs group receiving 1 mg/kg bortezomib.

With `OC[C@@H](O)[C@H](O)CO` [D-threitol], the “withdrawal response time (latent time)” value runs as follows: under setting [1], “approximately similar to that of the control group”; under setting [2], “significantly longer withdrawal response time”.

As to `OC[C@H](O)[C@H](O)[C@H](O)[C@@H](O)CO` [L-talitol], the “withdrawal response time (latent time)” value is “approximately similar to that of the control group” under setting [1] and “significantly longer withdrawal response time” under setting [2].

Regarding `OC[C@@H](O)[C@H](O)[C@@H](O)CO` [xylitol], the “withdrawal response time (latent time)” value is “approximately similar to that of the control group” under setting [1] and “significantly longer withdrawal response time” under setting [2].
